Article PMC9656482, “In Vitro and In Vivo Biological Activity of Ruthenium 1,10-Phenanthroline-5,6-dione Arene Complexes” (International Journal of Molecular Sciences, 2022)

Experiments:
[1] = tested on: A2780 ovarian carcinoma cell line; assay: MTS antiproliferative assay, A2780; type: cell-based, human; details: 48 h incubation, MTS; read-out: Relative IC50, A2780
Procedure: (§3) Normal dermal human fibroblasts, colorectal carcinoma cell line HCT116 and ovarian carcinoma cell line A2780 were acquired from ATCC (Manassas, VA, USA). […] Fibroblasts and HCT116 cells were cultured in Dulbecco’s modified Eagle medium (DMEM, Thermo Fisher Scientific) and A2780 cell line was cultured on Roswell Park Memorial institute 1640 (RPMI-1640, Thermo Fisher Scientific). Both media were supplemented with 10% (v/v) fetal bovine serum (FBS, Thermo Fisher Scientific) and a mixture of 100 U/mL penicillin and 100 mg/mL streptomycin. The supplemented media are referred to from this point on as DMEM or RPMI for simplicity. […] All experiments underwent at 37 °C, 5% (v/v) CO2 and 99% (v/v) humidity in the dark.
(§4) Cells were seeded in a 96-well plate in a density of 7500 cells/well, and after 24 h was submitted to a concentration range between 0.1–50 µM of complexes JHOR10 and JHOR11. DMSO with a 0.1% (v/v) concentration was used as vector control and cisplatin was used as positive control in all replicates. After 48 h incubation, cellular viability was inferred with the Cell Titer 96® Aqueous One solution cell proliferation assay (Promega, Madison, WI, USA) according to the manufacturer’s instructions and procedures previously described [18, 40]. The absorbance of the produced Formazan was quantified with a Tecan microplate reader, Infinite M200 (Tecan, Mannedorf, Switzerland) and the analysis of the dose–response curves to determine the relative IC50 was performed with GraphPad Prism 8.2.1 software (GraphPad Software, La Jolla, CA, USA).

[2] = tested on: HCT116 colorectal carcinoma cell line; assay: MTS antiproliferative assay, HCT116; type: cell-based, human; details: 48 h incubation, MTS; read-out: Relative IC50, HCT116
Procedure: as §3, §4

[3] = tested on: doxorubicin-resistant HCT116 (HCT116-Dox); details: read-out: Relative IC50, HCT116-Dox; 48 h incubation, MTS
Procedure: (§1) The cytotoxic potential of the complexes was evaluated by assessing their viability using the 3-(4,5-dimethylthiazol-2-yl)-5-(3-carboxymethoxyphenyl)-2-(4-sulfophenyl)-2H tetrazolium, inner salt (MTS) colorimetric assay in three tumor cell lines—ovarian carcinoma, A2780, colorectal carcinoma, HCT116, and colorectal carcinoma resistant to doxorubicin, HCT116-Dox and in normal human primary dermal fibroblasts (Figure 1 and Figure S7).
(§2) Normal dermal human fibroblasts, colorectal carcinoma cell line HCT116 and ovarian carcinoma cell line A2780 were acquired from ATCC (Manassas, VA, USA). HCT116 cell lines resistant to doxorubicin (HCT116-Dox) were derived from the HCT116 cell line, as previously described. Fibroblasts and HCT116 cells were cultured in Dulbecco’s modified Eagle medium (DMEM, Thermo Fisher Scientific) and A2780 cell line was cultured on Roswell Park Memorial institute 1640 (RPMI-1640, Thermo Fisher Scientific). Both media were supplemented with 10% (v/v) fetal bovine serum (FBS, Thermo Fisher Scientific) and a mixture of 100 U/mL penicillin and […] streptomycin. The supplemented media are referred to from this point on as DMEM or RPMI for simplicity.

[4] = tested on: normal human dermal fibroblasts; details: read-out: Relative IC50, Fibroblasts; 48 h incubation, MTS
Procedure: as §1, §2

[5] = Stability in DMSO-d6-D2O solution by 1H NMR; type: physicochemical; details: DMSO-d6-D2O 3:7 (v/v), 110 mM chloride
Procedure: To evaluate the stability of complexes in a cell culture medium, powdered complexes were first solubilized in DMSO and then immediately in DMEM, in order to guarantee that no more than 0.1% (v/v) DMSO was present in the medium. […] In addition, the stability of the complexes in solution was investigated by ^1H NMR spectroscopy. The ruthenium complexes were dissolved in DMSO-d6-D2O, in a 3:7 ratio (v/v) with a 110 mM chloride concentration, and the ^1H NMR spectra was recorded immediately and after 48 h. […] This observation is in agreement with the M–Cl aquation processes described for several metallic compounds, such as cisplatin [23]. After 48 h, the ^1H NMR spectrum of JHOR10 was unchanged.
The stability of complexes was evaluated in DMEM (Dulbecco’s modified Eagle’s medium). Powdered complexes JHOR10 and JHOR11 were solubilized in DMSO and then immediately diluted in DMEM without phenol red (Thermo Fisher Scientific, Waltham, MA, USA) to a final concentration of 100 µM, assuring that the final concentration of DMSO was not higher than 0.1% (v/v). The UV-visible spectrum was measured after an incubation at 37 °C for 24 or 48 h (DMEM) in a wavelength range between 260 and 800 nm, using a quartz cuvette with 1 cm path length. A total of 2 mg of each compound was dissolved in DMSOd6-D2O 3:7 (v/v) 110 mM chloride concentration (NaCl), and the ^1H NMR were recorded at 0 h and 48 h on a Bruker Avance III 400 MHz.

zebrafish embryos = assay: In vivo toxicity assessment using zebrafish embryos; details: zebrafish embryos exposed from 72 hpf, 96 h
Procedure: The toxicity of the JHOR10 and JHOR11 compounds was assayed in zebrafish embryos. There was a NOEC (No Observed Effect Concentration) in the case of JHOR11 of 80 µM (Table 2). The NOEC is the concentration used for the xenotransplantation experiments in order not to affect the normal development of the embryos and being able, in parallel, to assay the effect of the compound over the injected cells. Apart from that, the mortality assayed in the toxicity assays supports the concentration obtained in the NOEC, with a low mortality of the embryos when they are incubated with JHOR11 (Figure 13 and Figure 14).
Wild-type zebrafish were housed in 30 L tanks within a water recirculation system under controlled physicochemical conditions: pH 7–7.5, temperature 26 ± 2 °C, conductivity 600 µS/cm and light/dark photoperiod of 14/10 h. The adult fish were fed Gemma Micro 300 (Skretting) twice a day. Fertilized eggs were collected after natural spawning and stored in Petri dishes for 48 h until being injected, or 72 h until being exposed to different concentrations of ruthenium compounds.
At 72 h post-fertilization (hpf), the embryos were exposed to increasing concentrations of two ruthenium compounds to determine toxicological estimates: LC50 with no observed effect concentration (NOEC) and lowest observed effect concentration (LOEC). The acute toxicity assessment of the compounds was performed following the standards of the OECD Test Guideline Program.
The embryos were individually transferred to 96-well plates containing 100 µL of each desired concentration. The plates were then placed in an incubator with a temperature of 26 °C and a photoperiod of 14 h of light and 10 h of darkness. The duration of the experiment was 96 h, and observations were made every 24 h recording the four lethal effects indicated by the OECD: embryo coagulation, absence of somite formation, absence of separation of the yolk tail and absence of heartbeat. All compounds were dissolved with dimethylsulfoxide (DMSO) with a final concentration of 1%. In each test, seven concentrations were analyzed for each compound, these being: JHOR10 (10, 20, 30, 40, 50, 55, 60 µM) and JHOR11 (50, 80, 100, 140, 200, 300, 400 µM).
For the evaluation of toxicity, the mortality data were analyzed by probit analysis with the ToxRat software (ToxRat Solutions. 2003. ToxRat®. Software for the statistical analysis of biotests. Alsdorf, Germany).

A2780 cells = assay: Cell cycle analysis (PI staining); type: cell-based, human; details: A2780 synchronized with thymidine; IC50 of JHOR11 or 0.1 µM doxorubicin; 5-32 h, relative to DMSO
Procedure: To understand if the complex also presents a cytostatic effect, the cell cycle of A2780 cells was analyzed by DNA staining with PI, after double synchronization with thymidine at the S phase.
The cell cycle analysis was performed by DNA staining with PI according to procedures previously described with few modifications. A2780 cells were seeded in 6-well plates in a cell density of 4 × 10^5 cells/well and the cell cycle was synchronized in the S-phase by double blocking with 2 mM thymidine. […] After 5 h, 9 h, 24 h or 32 h, cells were detached, fixed with 80% (v/v) ethanol, incubated with 50 mg/mL RNase A (NZYtech, Lisbon, Portugal) and stained with […] PI (Thermo Fisher Scientific). The fluorescence of each sample was analyzed in an Attune acoustic focusing cytometer and respective software (Thermo Fisher Scientific).

Compound | IC50 [1] [µM] | IC50 [2] [µM] | IC50 [3] [µM] | IC50 [4] [µM] | stability in solution by 1H NMR after 48 h ([5]; 48 h) | stability in solution by 1H NMR at t = 0 h ([5]; t = 0 h) | LC50 (zebrafish embryos) [µM] | LOEC (Lowest Observed Effect Concentration) (zebrafish embryos) [µM] | NOEC (No Observed Effect Concentration) (zebrafish embryos) [µM] | cell cycle effect (A2780 cells)
N.N.[Cl][Pt][Cl] [Cisplatin, reference compound] | 1.9 ± 0.2 | 15.6 ± 5.3 |  |  |  |  |  |  |  | 
Cc1ccc(C(C)C)cc1.O=C1C(=O)c2cccnc2-c2ncccc21.O=S(=O)([O-])C(F)(F)F.[Cl][Ru+] [JHOR10, [Ru{p-C6H4(Me)(iPr)}{(Dione)Cl][CF3SO3]] | 5.3 ± 0.3 | 25.7 ± 1.3 | > 50 | > 50 | unchanged | new sets of resonances appeared | 29.8 | 20.00 | 10.00 | 
COc1cccc2c1C(=O)c1c(O)c3c(c(O)c1C2=O)C[C@@](O)(C(=O)CO)C[C@@H]3O[C@H]1C[C@H](N)[C@H](O)[C@H](C)O1 [doxorubicin, reference compound] |  |  |  |  |  |  |  |  |  | cell cycle arrest at G2/M phase
